Measured values published in paper PMC11784839, “Monoaminergic neurotransmitters are bimodal effectors of tau aggregation” (Science Advances, 2025).

Target: tau (Homo sapiens, UniProt P10636)
Assay: MCE Phenols Library screening, tau biosensor cell seeding assay (AvZ)
Format: cell-based
Settings: for Z repl 1 / Z Repl 2: Z score; for Z repl 1 / raw data 1: replicate 1; for Z Repl 2 / raw data 2: replicate 2; for av Z: average Z score of the two replicates
[1] = average puncta of the two replicates
[2] = tau biosensor seeding, MCE Phenols Library screen

Chain of tau (P10636 623-695 limits assumed): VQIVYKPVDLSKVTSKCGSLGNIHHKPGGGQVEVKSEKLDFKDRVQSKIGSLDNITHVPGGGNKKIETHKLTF

SMILES | Z repl 1 | Z Repl 2 | av Z (MCE Phenols Library screen) | av puncta [1] | raw data 1 (raw puncta) | raw data 2 (raw puncta) | av puncta (average of raw data 1 and 2) | raw data 1 (puncta) | raw data 2 (puncta) | av Z [2] | AvZ (average z score of seeding, SDs from the mean level of seeding) (10 μM phenol in cell cultures, AD brain homogenate preincubated 16 hours, two biological replicates, positive = catalyzes seeding, negative = inhibits) | av Z (tau seeding)
Oc1cc(O)c2c(c1)O[C@H](c1cc(O)c(O)c(O)c1)[C@H](O)C2 [(-)-Epigallocatechin] | -0.424 | -0.047 | -0.236 | 16761.1 | 21261.4 | 12260.9 |  |  |  |  |  | 
O=C(O[C@@H]1Cc2c(O)cc(O)cc2O[C@H]1c1cc(O)c(O)c(O)c1)c1cc(O)c(O)c(O)c1 [(-)-Gallocatechin gallate] |  | -1.187 |  |  |  |  | 257.55 | 427.718 | 87.382 |  |  | 
Oc1cc(O)c2c(c1)O[C@@H](c1cc(O)c(O)c(O)c1)[C@H](O)C2 [(-)-Gallocatechin] | -1.316 | -0.749 | -1.032 |  |  |  | 7661.42 | 10555.6 | 4767.22 |  |  | 
Oc1ccc2c(c1)OC[C@H]1c3cc4c(cc3O[C@@H]21)OCO4 [(-?)?-Maackiain] | 0.975 | 0.791 |  |  |  |  | 29633.2 | 38055.6 | 21210.9 | 0.883 |  | 
COc1cc(/C=C/C(=O)OCC2OC(OC3(CO)OC(CO)C(O)C3OC(=O)/C=C/c3cc(OC)c(O)c(OC)c3)C(O)C(O)C2O)cc(OC)c1O (stereo not shown) [(E)-3',6-Disinapoylsucrose] | 0.224 | -0.662 | -0.219 | 17367.3 | 29041 | 5693.57 |  |  |  |  |  | 
COC(=O)/C=C/c1ccc(O)cc1 [(E)-Methyl 4-coumarate] | 0.336 | -0.209 |  |  |  |  | 20459.1 | 30381.4 | 10536.7 |  | 0.064 | 
COc1ccc2cc1Oc1ccc(cc1)C[C@H]1c3cc(c(OC)cc3CCN1C)Oc1c(O)c(OC)cc3c1[C@@H](C2)N(C)CC3 [(R)-Fangchinoline] | 0.226 | 0.65 |  |  |  |  | 24385.2 | 29066.8 | 19703.5 |  |  | 0.438
CC[C@@]1(O)C(=O)OCc2c1cc1n(c2=O)Cc2cc3cc(O)ccc3nc2-1 [(S)-10-Hydroxycamptothecin] | 1.738 | 1.796 |  |  |  |  | 39581.6 | 47219.2 | 31944.1 | 1.767 |  | 
CC(C)=CC[C@H](OC(=O)C=C(C)C)C1=CC(=O)c2c(O)ccc(O)c2C1=O [?,?-Dimethylacrylalkannin] | 0.881 | 0.516 |  |  |  |  | 27599.4 | 36919.9 | 18278.8 |  |  | 0.698
OC[C@H]1O[C@@H](Oc2ccc(O)cc2)[C@H](O)[C@@H](O)[C@@H]1O [?-Arbutin] | 1.599 | 0.945 |  |  |  |  | 34202.6 | 45542.6 | 22862.6 | 1.272 |  | 
